{
  "source": "paper PMC9138545",
  "about": "“Incorporation of Oxidized Phenylalanine Derivatives into Insulin Signaling Relevant Proteins May Link Oxidative Stress to Signaling Conditions Underlying Chronic Insulin Resistance” (Biomedicines, 2022)",
  "key": {"[1]": {"test_system": "IRS-1 (Tyr612)", "assay": "Western blot, activating phosphorylation of IRS-1 (Tyr612)", "format": "cell-based", "conditions": "400 nmol/L insulin; adipocytes, HEK cells, podocytes, macrophages; n = 4–8", "experimental": "(§1) Early passages of mouse embryo fibroblast (3T3-L1) (ATCC, Manassas, VA, US) were cultured in Dulbecco’s modified Eagle medium (DMEM, Sigma Aldrich, Budapest, Hungary, CAT number: D6046; Invitrogen, Waltham, MA, USA, CAT number: 41966-029) supplemented with 100 U/mL penicillin, 0.1 mg/mL streptomycin (Gibco, Budapest, Hungary, CAT number: 15070-063) and 10% heat-inactivated Fetal Bovine Serum (FBS, Gibco, CAT number: 16170-078), supplemented with 398 nM p-, m-, or o-Tyr (equimolar to the original p-Tyr content of the medium) purchased from Sigma (CAT number: para-Tyr: T8566, m-Tyr: T3629, o-Tyr: 93851). Media contained 25 or 5 mmol/L glucose (experiment dependent) pyruvate and L-glutamine. Cells were grown at 37 °C and 5% CO2. Adipocyte differentiation was achieved by DMEM supplemented with 10% FBS (Gibco, Csertex, Budapest, Hungary, CAT number: 10106-169) (FBS) and a […] insulin (Sigma Aldrich, Budapest, Hungary, CAT number: I 9278), […] isobuthylmethylxanthine (Sigma Aldrich, Budapest, Hungary, CAT number: I 5879), and 250 nmol/L dexamethasone (Sigma Aldrich, Budapest, Hungary, CAT number: 861871) containing cocktail. From day 4 onward, cultures were maintained in DMEM containing 1.5 μg/mL insulin and 10% FBS with a medium change every other day until experimental treatments were started. After 90% of the cell population reached the adipocyte phenotype, prior to all treatments, cells were incubated overnight in serum-deprived medium. Experimental treatment was performed in serum-deprived medium containing 200 or 400 nmol/L insulin, for 5 min.\n(§2) The conditionally immortalized human podocyte cell line (provided by Moin Saleem, University of Bristol, UK) was cultured in RPMI1640 medium (R8756, Sigma Aldrich, Budapest, Hungary) supplemented with 10% heat-inactivated FBS (16170-078, Gibco, Budapest, Hungary), insulin-transferrin-selenium supplement (41400-045, Gibco), 100 U/mL penicillin, 0.1 mg/mL streptomycin (P4333, Sigma), and […] (equimolar to the original p-Tyr content of the medium) para-, meta-, or ortho-Tyr. The cells were grown at 33 °C 5% CO2, and when they reached 40–60% confluency they were transferred to 37 °C to differentiate. Following the thermoswitching, cells were kept on RPMI1640 medium containing 2% FBS, antibiotics, and different tyrosines. Before every treatment, cells were incubated in serum-deprived medium overnight.\n(§3) HEK-293 immortalized cell line (ATCC, Manassas, VA, USA) of epithelial morphology and the J774A.1 mouse BALB/C monocyte-macrophage cell lines (91051511-1VL, Sigma Aldrich, Budapest, Hungary) were cultured in Petri dishes with a medium composed of Dulbecco’s modified Eagle’s medium (DMEM, Sigma Aldrich, Budapest, Hungary, CAT number: D6046, Invitrogen, CAT number: 41966-029), with a 10% heat-inactivated FBS supplementation (16170-078, Gibco), insulin-transferrin-selenium supplement (41400-045, Gibco, Budapest, Hungary,), 100 U/mL penicillin and 0.1 mg/mL streptomycin (P4333, Sigma) and 398 nM para (5 and 25 mmol/L), meta-, or ortho-Tyr (T8566, T3629, 93851, Sigma). Before treatment, cells were incubated in serum-deprived medium overnight as well. […]\n(§4) The samples of lysates were vortexed and centrifuged (10 min, 13,000 rpm, at 4 °C). Protein content of the samples was determined by the Lowry method using bovine serum albumin as a standard. […]"}, "[2]": {"test_system": "Akt (Ser473)", "assay": "Western blot, activating phosphorylation of Akt (Ser473)", "format": "cell-based", "conditions": "400 nmol/L insulin; adipocytes, HEK cells, podocytes, macrophages; n = 4–8", "experimental": "as §1, §2, §3, §4"}, "[3]": {"test_system": "3T3-L1 adipocytes", "assay": "Isotope glucose uptake (deoxy-D-glucose 2-[1 2-3H(N)]) in differentiated 3T3-L1 adipocytes", "format": "cell-based, mouse", "experimental": "as §1\nInitially, cells were kept in glucose-free DMEM (Gibco, Csertex, Budapest, Hungary) for 30 min and then were treated with 2, 20, 200, or 400 nmol/L insulin for 100 min. Concurrently, 1 μCi/mL deoxy-D-glucose 2-[1 2-3H(N)] (3.7 × 104 Bq/mL) (Izotóp Intézet, Budapest, Hungary) was added to the plates for 100 min. After scraping the cells into the medium, they were centrifuged for 5 min at 1000 rpm. We dissolved the sediment in 70 μL of lysis buffer, then glucose uptake was determined by scintillation counting by measuring 30 μL of the sample, using a Beckman LS 5000 TD counter, in counts per minute (CPM), for five minutes each, with average activity was used as the outcome. Following freezing overnight at −70 °C, protein concentration was measured with a Hitachi spectrophotometer. Results were normalized for protein content."}, "[4]": {"test_system": "IR kinase (989–1382, fused to GST)", "assay": "IR kinase phosphorylation assay, capillary electrophoresis", "format": "biochemical", "conditions": "200 μM peptide, 875 nM IR kinase, 1 mM ATP, 5 mM MgCl2, pH 7.5", "experimental": "Enzymatically active IR kinase (989–1382, fused to GST and produced in SF9 cells) was ordered from SinoBiological (catalog number 11081-H20B1). The stock solution was aliquoted and frozen separately to preserve activity. Prior to comparative measurements, the activity of recombinant IR kinase was tested on internal control peptides and found to be suitable for kinase assays.\nThe kinase assay mixture contained 200 μM peptide (GRKGSGDYMPMSPKV) and 875 nM IR kinase in kinase buffer (20 mM potassium phosphate (monobasic), 15 mM sodium phosphate (dibasic), 103 mM NaCl, 5 mM MgCl2, 5% glycerol, 0.05% Igepal; pH 7.5). The reaction was initialized by addition of 1 mM ATP. The phosphatase reaction mixture contained 80 μM peptide (GRKGSGD(phosphoY)MPMSPKV) in buffer (50 mM TRIS, 150 mM NaCl, 1 mM EDTA and 2 mM DTT; pH 7.4). The reaction was initialized by addition of 25 nM PTP1B enzyme. Equal aliquots of the kinase or the phosphatase reaction mixture were subjected to capillary electrophoresis analysis at the indicated time points after the start the reaction.\nBackground electrolyte (BGE) components phosphoric acid and triethylamine were purchased from Sigma (St. Louis, MO, USA) and from Merck GmbH (Darmstadt, Germany), respectively. Capillary electrophoresis was performed with an Agilent Capillary Electrophoresis 3DCE system (Agilent Technologies, Waldbronn, Germany) applying DB-WAX coated capillary having a 33.5 cm total and 25 cm effective length with 50 μm I.D. (Agilent Technologies, Santa Clara, CA, USA). On-line absorption at 200 nm was monitored by DAD UV-Vis detector. The capillary was thermostated at 25 °C. Before measurements, the capillary was rinsed subsequently with distilled water for 15 min and between measurements with BGE (100 mM trimethylamine-phosphate buffer; pH 2.5) for 3 min. Samples were injected by 5 × 10^3 Pa pressure for 6 s. Runs were performed in the positive-polarity mode with 20 kV."}, "[5]": {"test_system": "3T3-L1 adipocytes", "assay": "HPLC of non-protein-bound intracellular tyrosines", "format": "cell-based, mouse", "conditions": "5 or 25 mmol/L glucose, with or without 400 nmol/L insulin", "experimental": "as §1\nTo measure the total intracellular non-protein-bound tyrosine concentration, prior to the freezing of samples overnight at −70 °C to achieve cell lysis, 200 μL distilled water was added to each. After melting up, samples were centrifuged for 15 min at 15,000 rpm. A total of 200 µL of the supernatant was mixed with 200 µL of 60% trichloroacetic acid. After 30 min incubation on ice, samples were centrifuged again at 15,000 rpm for 15 min. Then, the supernatant was filtered and was diluted 5-fold and then 160 µL distilled water was added to 40 µL of filtrate, followed by the injection of the mixture onto the HPLC column.\nThe amounts of p-, o-, m-Tyr and Phe in the samples were determined by measuring their autofluorescence. Thus, no derivatization or staining was needed. Samples were measured on a Shimadzu Class 10 HPLC system equipped with an RF-10 AXL fluorescent detector (Shimadzu USA Manufacturing Inc., Canby, OR, USA). The mobile phase consisted of 1% sodium acetate and 1% acetic acid dissolved in water. The separation took place on a LiChroCHART 250-4 column (Merck KGaA, Darmstadt 64271, Germany) in an isocratic run. Wavelengths of 275 nm for excitation and 305 nm for emission were used to assess p-, o- and m-Tyr, while Phe was detected at 258 nm excitation and 288 nm emission wavelengths. Determination of the area under the curve (AUC) plus external standard calibration was used to calculate the precise concentrations of the amino acids."}, "[6]": {"test_system": "p-IRS-1 in podocytes", "assay": "Immunofluorescence of p-IRS-1 in insulin-treated podocytes", "format": "cell-based, human", "conditions": "400 nmol/l insulin for 10 min", "experimental": "as §2\n(§5) In a 6-well plate, 104 cells were cultured on glass coverslips washed with alcohol and dried under UV light. The podocyte cells were grown in RPMI1640 medium supplemented with 10% heat-inactivated FBS at 33 °C, 5% CO2. When they reached 60% confluence, the medium was changed to RPMI1640 medium containing 2% FBS and 112.05 nM of the different tyrosine isoforms, then the plates were transferred to 37 °C, 5% CO2 to allow the cells to differentiate. The different tyrosine isoforms were added to the maintenance medium. The cells were serum deprived overnight, then incubated with 400 nmol/l insulin for 10 min. After removal of the medium, the coverslips were washed twice with PBS. The cells were fixed at room temperature in 2% paraformaldehyde and 4% sucrose for 8 min, then permeabilized using 0.3% Trion X-100 in 1xPBS for 20 min and blocked in 2.5% BSA for 45 min [45]. The primary antibody was diluted in 1xPBS, and the cells were incubated in it for 60 min in humid conditions. The antibodies we used were mouse anti-WT1 antibody (H-1) (1:100, Santa Cruz Biotechnology, Dallas, TX, USA), chicken anti-vimentin antibody (1:100, Abcam), rabbit anti-glucose transporter GLUT4 antibody (1:100, Abcam, Cambridge, UK), mouse Insulin Receptor Substrate-1 antibody (1:100, Invitrogen, Waltham, MA, USA), and rabbit anti-phospho-Insulin Receptor Substrate-1 (pTyr612) antibody (1:10, Sigma). Coverslips were washed in PBS three times for 5 min in PBS and incubated in the fluorophore-conjugated secondary antibodies anti-goat, anti-chicken, secondary antibody Alexa fluor 647, anti-rabbit Alexa fluor 350, and anti-mouse Alexa Fluor 488 (1:10, Invitrogen) for 60 min. Samples were then washed in PBS three times for 5 min and mounted in Vectashield (Vector Laboratories). Images were taken with a Nikon Eclipse Ti2 microscope."}, "[7]": {"test_system": "GLUT4 and vimentin in podocytes", "assay": "Immunofluorescence of GLUT4 and vimentin in insulin-treated podocytes", "format": "cell-based, human", "conditions": "400 nmol/l insulin for 10 min", "experimental": "as §2, §5"}},
  "note": "“Also recorded” adds a separate entry of the source.",
  "data": [
    {"compound": "insulin: insulin (Sigma Aldrich, I 9278)", "values": [
      {"measurement": "insulin-induced IRS-1 phosphorylation", "setting": "[1]", "result": "approximately two-fold"},
      {"measurement": "insulin-induced Akt phosphorylation", "setting": "[2]", "result": "approximately two-fold"},
      {"measurement": "insulin-induced glucose uptake, time dependence", "setting": "[3]; 200 nmol/L insulin, cells grown 1, 2, 3, 4, 5 or 12 days with p-, m- or o-Tyr, n = 5–8", "result": "approximately two-fold"},
      {"measurement": "insulin-induced glucose uptake, 5 mmol/L glucose", "setting": "[3]; 2, 20, 200, 400 nmol/L insulin, 5 mmol/L glucose, medium with p-, m- or o-Tyr", "result": "marked increase in glucose uptake in 5 mmol/L glucose"}
    ]},
    {"compound": "GRKGSGDF(2-hydroxy)MPMSPKV [o-tyrosine containing peptides, unphosphorylated ortho-tyrosine IRS-1 YXXM motif peptide]", "values": [
      {"measurement": "phosphorylation by IR kinase", "setting": "[4]", "result": "neither o- nor m-tyrosine containing peptides are substrates for the IR kinase"},
      {"measurement": "phosphorylation by IR kinase", "setting": "[4]; listed as ortho-tyrosine peptides", "result": "very poor substrates"}
    ]},
    {"compound": "GRKGSGDF(3-hydroxy)MPMSPKV [m-tyrosine containing peptides, unphosphorylated meta-tyrosine IRS-1 YXXM motif peptide]", "values": [
      {"measurement": "phosphorylation by IR kinase", "setting": "[4]", "result": "neither o- nor m-tyrosine containing peptides are substrates for the IR kinase"},
      {"measurement": "phosphorylation by IR kinase", "setting": "[4]; listed as meta-tyrosine peptides", "result": "very poor substrates"}
    ]},
    {"compound": "GRKGSGDF(4-hydroxy)MPMSPKV [p-Tyr containing “natural” peptide, unphosphorylated para-tyrosine IRS-1 YXXM motif peptide]", "values": [
      {"measurement": "phosphorylation by IR kinase", "setting": "[4]", "result": "efficiently phosphorylated"}
    ]},
    {"compound": "N[C@@H](Cc1ccc(O)cc1)C(=O)O", "note": "[p-Tyr, para-tyrosine, reference compound]", "values": [
      {"measurement": "cellular uptake of amino acids (non-protein-bound intracellular content)", "setting": "[5]", "result": "continuous uptake of amino acids which was independent of glucose concentration (5 or 25 mmol/L) and the presence of insulin"},
      {"measurement": "membrane translocation of IRS-1 / p-IRS-1", "setting": "[6]", "result": "clearly demonstrated; also recorded: located in the membrane"},
      {"measurement": "p-IRS-1 intensity", "setting": "[6]; vs. p-Tyr", "result": "more intense"},
      {"measurement": "GLUT4 membrane localization", "setting": "[7]", "result": "characteristic localization of GLUT-4 positivity; also recorded: GLUT4 aggregates are transported to the membrane"},
      {"measurement": "reversal of inhibitory effect of o- and m-Tyr on glucose uptake", "setting": "[3]; increasing p-Tyr concentrations, with or without 400 nmol/L insulin, n = 10", "result": "ameliorated by increasing concentrations of p-Tyr"}
    ]}
  ]
}
